Here are results for 14 molecules from patent US20250332173A1, “COMPOUNDS AND METHODS FOR MODULATING NUCLEIC ACID SPLICING” (REMIX THERAPEUTICS INC., priority 2021, published 2025).

Structures are written as SMILES. Like-named read-outs stand apart in the source and are kept apart here.

Type in all cases: cell-based, human
For one assay, the system named is MYB mRNA. Description: RT-qPCR splicing assay, MYB canonical junction (CJ) and alternative junction (AJ) mRNA. Conditions: Homo sapiens; for AC50: increase in MYB alternative junction (AJ) mRNA, read-out: MYB AJ AC50. The gist of the method: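 Read-out is one-step RT-qPCR on cell lysates detecting the exon-exon junction of each isoform, normalized to a housekeeping gene (PPIA in A673, GAPDH or GUSB in K562).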

The test system of the next assay is Target C. The assay can be described thus: HiBiT protein abundance assay, Target C (Promega Nano-Glo HiBiT Lytic Detection System, knock-in K562 cell line). The following applies: Homo sapiens, K562, 24 h, HiBiT K562 cell line, 24 hours, top dose 10 μM; read-out: Effect on protein abundance, Target C (IC50 category). The gist of the method:
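Protein abundance was read by Nano-Glo HiBiT lytic luminescence after 24 h compound exposure (10-point, threefold series from 10 μM final) of HiBiT knock-in K562 cells. Parental K562 served as baseline; the 50%-abundance concentration was interpolated from a four-parameter logistic fit.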
(In general: With HiBiT, luminescence reflects the tagged protein that the partner subunit can reach.)

The subject of another assay is MYB. Description: HiBiT protein abundance assay, MYB HiBiT K562 cell line. Conditions: HiBiT K562 cell line, 24 hours, top dose 10 μM; read-out: Effect on protein abundance, MYB (IC50 category). The gist of the method: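 Tagged-protein abundance measured by split-NanoBiT luminescence after lysis, following 24 h compound exposure (37° C; 10 μM top, 3-fold, 10 points; DMSO ≤0.25%) of HiBiT knock-in K562 cells. Percent response vs DMSO and unmodified-cell controls; 4-parameter logistic interpolation at 50% gave IC50.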

Setting [1] is: Table 5 panel, canonical junction qPCR, compound concentration having 50% response in CJ decrease, read-out: MYB IC50 (decrease in CJ mRNA levels).
[2] abbreviates: decrease in MYB canonical junction (CJ) mRNA, RT-qPCR, read-out: MYB CJ IC50.

Broadly, the IC50 is the midpoint of a concentration-inhibition curve. Usually AC50 stands for the concentration at which the activity in the assay is half-maximal. Regarding `Cc1cn2nc(-c3ccc4c(=O)n([C@H]5CCNC6(CC6)C5)ccc4c3)cc(C)c2n1` [Compound 445], the IC50 in the assay on MYB mRNA (setting [1]), with MYB mRNA (setting [2]), with Target C and in the assay with MYB was below 100 nM throughout. Also, the AC50 with MYB mRNA (RT-qPCR) is below 100 nM.
Take `Cc1cn2nc(-c3cc(F)c4c(=O)n([C@@H]5CCNC6(CC6)C5)ncc4c3)cc(C)c2n1` [Compound 446]: the IC50 with MYB mRNA (setting [1]), in the assay on MYB mRNA (setting [2]), with Target C and in the assay on MYB was below 100 nM throughout. Also, the AC50 with MYB mRNA (RT-qPCR) was below 100 nM.
As for `Cc1cn2nc(-c3cc(F)c4c(=O)n([C@H]5CCNC6(CC6)C5)ncc4c3)cc(C)c2n1` [Compound 447], the IC50 in the assay on MYB mRNA (setting [1]), with MYB mRNA (setting [2]), in the assay with Target C and in the assay on MYB was below 100 nM in each case. Further, the AC50 in the assay on MYB mRNA (RT-qPCR) is below 100 nM.
As for `Cc1cn2nc(-c3cc4ccn(C5CCNCC5)c(=O)c4cc3O)cc(C)c2n1` [Compound 448, 6-{2,8-dimethylimidazo[1,2-b]pyridazin-6-yl}-7-hydroxy-2-(piperidin-4-yl)isoquinolin-1-one], the IC50 in the assay on MYB mRNA (setting [1]), in the assay with MYB mRNA (setting [2]), with Target C and in the assay with MYB was below 100 nM each time. Moreover, the AC50 in the assay with MYB mRNA (RT-qPCR) is below 100 nM.
For the molecule `COc1cc2c(=O)n(C3CCNCC3)ccc2cc1-c1cc(C)c2nc(C)cn2n1` [Compound 449, 6-{2,8-dimethylimidazo[1,2-b]pyridazin-6-yl}-7-methoxy-2-(piperidin-4-yl)isoquinolin-1-one], the IC50 with MYB mRNA (setting [1]), with MYB mRNA (setting [2]), with Target C and with MYB was above 10000 nM throughout. In the assay on MYB mRNA (RT-qPCR), the AC50 is above 10000 nM.
Turning to `Cc1cn2cc(-c3ccc4c(=O)n([C@@H]5CCNC5)cc(C)c4c3)cc(F)c2n1` [Compound 452, (R)-6-(8-fluoro-2-methylimidazo[1,2-a]pyridin-6-yl)-4-methyl-2-(pyrrolidin-3-yl)isoquinolin-1(2H)-one], the IC50 in the assay on MYB mRNA (setting [1]) is 1000 to 10000 nM; in the assay with MYB mRNA (setting [2]), 1000 to 10000 nM; in the assay on Target C it was above 10000 nM; in the assay with MYB it was 1000 to 10000 nM. Moreover, the AC50 with MYB mRNA (RT-qPCR) was in the range of 1000 to 10000 nM.
Take `Cc1cn2c(n1)CCC(c1ccc3c(=O)n(C4CCNCC4)ccc3c1)C2` (stereo not shown) [Compound 453, 6-{2-methyl-5H,6H,7H,8H-imidazo[1,2-a]pyridin-6-yl}-2-(piperidin-4-yl)isoquinolin-1-one]: the IC50 in the assay with MYB mRNA (setting [1]), in the assay on MYB mRNA (setting [2]), with Target C and with MYB was above 10000 nM each time. In addition, the AC50 with MYB mRNA (RT-qPCR) is above 10000 nM.
As for `Cc1cn2cc(-n3ccc4cc(N5C[C@@H](C)N[C@@H](C)C5)ccc4c3=O)nc(C)c2n1` [Compound 454, 2-{2,8-dimethylimidazo[1,2-a]pyrazin-6-yl}-6-[(3R,5S)-3,5-dimethylpiperazin-1-yl]isoquinolin-1-one], the IC50 with MYB mRNA (setting [1]), with MYB mRNA (setting [2]), with Target C and in the assay on MYB was above 10000 nM throughout. The AC50 with MYB mRNA (RT-qPCR) is above 10000 nM.
Consider `Cc1cn2cc(-c3ccc4c(=O)n([C@H]5CCNC5)cc(C)c4c3)cc(C#N)c2n1` [Compound 456, (S)-2-methyl-6-(4-methyl-1-oxo-2-(pyrrolidin-3-yl)-1,2-dihydroisoquinolin-6-yl)imidazo[1,2-a]pyridine-8-carbonitrile], for which the IC50 is above 10000 nM in the assay on MYB mRNA (setting [1]), above 10000 nM in the assay on MYB mRNA (setting [2]), above 10000 nM in the assay on Target C and 1000 to 10000 nM with MYB. In addition, the AC50 with MYB mRNA (RT-qPCR) is above 10000 nM.
For the molecule `Cc1cn2cc(-c3cc(F)c4c(=O)n(C5CCNCC5)cc(C)c4c3)cc(F)c2n1` [Compound 461, 8-fluoro-6-{8-fluoro-2-methylimidazo[1,2-a]pyridin-6-yl}-4-methyl-2-(piperidin-4-yl)isoquinolin-1-one], the IC50 was below 100 nM in the assay on MYB mRNA (setting [1]), below 100 nM in the assay on MYB mRNA (setting [2]), 100 to 1000 nM with Target C and below 100 nM in the assay on MYB. Besides, in the assay with MYB mRNA (RT-qPCR), the AC50 is below 100 nM.
As to `Cc1cn2nc(-c3cc(O)c4c(=O)n(C5CCNC5)cc(C)c4c3)cc(C)c2n1` (stereo not shown) [Compound 462], the IC50 in the assay on MYB mRNA (setting [1]) was in the range of 1000 to 10000 nM; in the assay with MYB mRNA (setting [2]), 1000 to 10000 nM; in the assay with Target C it was 1000 to 10000 nM; in the assay with MYB it was 100 to 1000 nM. The AC50 in the assay on MYB mRNA (RT-qPCR) is 1000 to 10000 nM.
As to `Cn1cc2c(n1)CCN(c1ccc3c(=O)n(C4CCNCC4)ccc3c1)C2` [Compound 509, 6-{2-methyl-4H,6H,7H-pyrazolo[4,3-c]pyridin-5-yl}-2-(piperidin-4-yl)isoquinolin-1-one], the IC50 in the assay with MYB mRNA (setting [1]), in the assay on MYB mRNA (setting [2]), with Target C and with MYB was above 10000 nM in each case. The AC50 with MYB mRNA (RT-qPCR) was above 10000 nM.
`Cc1cn2cc(-c3ccc4c(=O)n(C5CCNC6(CC6)C5)ncc4c3)cc(Cl)c2n1` (stereo not shown) [Compound 510]: the IC50 in the assay with MYB mRNA (setting [1]), in the assay on MYB mRNA (setting [2]), with Target C and in the assay on MYB was 1000 to 10000 nM in each case. In addition, in the assay on MYB mRNA (RT-qPCR), the AC50 was in the range of 1000 to 10000 nM.
`Cn1cc2nc(-c3ccc4c(=O)n(C5CCNC6(CC6)C5)ncc4c3)ccc2n1` (stereo not shown) [Compound 511]: the IC50 with MYB mRNA (setting [1]), in the assay with MYB mRNA (setting [2]), in the assay on Target C and with MYB was 100 to 1000 nM throughout. Moreover, in the assay with MYB mRNA (RT-qPCR), the AC50 fell in the range of 100 to 1000 nM.
